We go through 4 compounds from publication PMC6162447, “Engineering Gain-of-Function Analogues of the Spider Venom Peptide HNTX-I, A Potent Blocker of the hNaV1.7 Sodium Channel” (Toxins, 2018).

“Also recorded” adds a separate entry of the source. Bridge positions count the residues as written; N and C are the ends. Peptide text beside a SMILES is read from it.

One assay has as its target T1, hNaV1.7 (Homo sapiens, UniProt Q15858).
T1 construct: expressed in transfected cells; host or cells: HEK 293
Nature of the assay: Whole-cell patch clamp on hNaV1.7 expressed in HEK 293 cells. Format: cell-based. The note with it: for Activity on NaV1.7 at a concentration of 10 µM: 10 µM peptide, HEK 293 cells (Figure 2A–C); for IC50: HEK 293 cells transfected with hNaV1.7 plus human β1 and β2 subunits, room temperature (20–25 °C), 50 ms depolarization to −10 mV from holding −100 mV, mean ± SEM. On the procedure: We maintained human embryonic kidney (HEK) 293 cells at 37 °C in a humidified 5% CO2 incubator in Dulbecco’s Modified Eagle’s Medium (DMEM) supplemented with 10% fetal bovine serum (FBS), 2 mM L-glutamine, 100 units/mL penicillin and 100 µg/mL streptomycin. cDNA genes encoding rat Nav1.2 and mouse Nav1.6 were subcloned into the vectors pcDNA3.1, respectively. We subcloned the gene that encodes hNaV1.7 into the vector pcDNA3.1-mod. We transfected the hNaV1.7 channel (3 μg) together with plasmids β1- (1 μg) and β2-eGFP ([…]), which encode the human β1 and β2 subunits, and Nav1.2 and Nav1.6 together with eGFP in HEK 293 cells using Lipofectamine 2000 (Invitrogen, Carlsbad, CA, USA) per the manufacturer’s instructions.
We performed whole-cell recordings using an EPC 10 patch clamp platform (HEKA, Elektronik, Lambrecht, Germany) at room temperature (20–25 °C). We made suction pipettes with access resistance of 2.0–3.0 MΩ from borosilicate glass capillary tubes (VWR micropipettes; VWR Co., West Chester, PA, USA) using a 2-step vertical microelectrode puller (PC-10; Narishige Co., Ltd., Tokyo, Japan) and compensated for voltage errors using 80% serial-resistance compensation. The standard pipette solution contained (in mM): 140 CsCl, 10 NaCl, 1 ethylene glycol-bis (β-aminoethyl ether)-N,N,N′,N′-tetraacetic acid (EGTA), and 10 HEPES (pH 7.4). The bath solution contained (in mM): 140 NaCl, 2 CaCl2, 1 MgCl2, 5 KCl, 20 4-(2-hydroxyethyl)-1-piperazineethanesulfonic acid (HEPES) and 10 glucose (pH 7.4). We purchased all chemicals from Sigma-Aldrich (St. Louis, MO, USA) and dissolved them in water. Data were acquired using PATCHMASTER software version 2x73 (HEKA Elektronik Dr. Schulze GmbH, Lambrecht, Germany). We filtered macroscopic sodium currents at 5 kHz and sampled them at 20 kHz. We acquired voltage clamp recordings 5 min after establishing a whole-cell configuration to allow adequate equilibration between the micropipette solution and the cell interior. We elicited channel current by 50 milliseconds of depolarization potential to −10 mV from the holding voltage of −100 mV.
We analyzed the data using Igor Pro software version 6.10A (WaveMetrics, Lake Oswego, OR, USA), Sigmaplot software version 10 (Sigma, St. Louis, MO, USA), OriginPro software version 8 (OriginLab Corp., Northampton, MA, USA) and Prism software version 5 (GraphPad Software, San Diego, CA, USA). Concentration–response curves were fitted using the following Hill logistic equation:y = fmax − (fmax − fmin)/(1 + (x/IC50)^n)(1) where fmax and fmin respectively represent the channel’s maximum and minimum responses to toxins, fmin was set to 0, x represents toxin concentration and n is an empirical Hill coefficient. All quantitative results are presented as mean ± standard error of the mean (SEM).
In general terms: Patch clamp records ionic current or voltage across a cell membrane.

For assay [1], the system named is mammalian voltage-gated sodium channels (VGSCs). The note with it: including hNaV1.7; cited from earlier work. An excerpt: Pain is a medical condition that interferes with normal human life and work and reduces human well-being worldwide. Human voltage-gated sodium channel NaV1.7 (hNaV1.7) is a compelling target that plays a key role in human pain signaling. […] We engineered analogues of HNTX-I based on sequence conservation in NaSpTx family 1. Substitution of Asn for Ser at position 23 or Asp for His at ... || Previously, we reported the identification of 33-residue peptide µ-TRTX-Hhn2b (HNTX-I), a member of NaSpTx family 1, from the venom of the spider Selenocosmia hainana. Although the amino acid sequence of this family is highly conserved, HNTX-I has shown weak affinity on insect sodium channels and no effect on mammalian voltage-gated sodium channels (VGSCs), unlike the majority of peptide toxins in NaSpTx family 1 [20]. In this study, we used HNTX-I as a framework and engineered analogues of it based on sequence conservation in the family. Ultimately, we engineered a gain-of-function analogue ...

In the next assay the test system is insect sodium channels. The note with it: cited from earlier work. An excerpt:
Previously, we reported the identification of 33-residue peptide µ-TRTX-Hhn2b (HNTX-I), a member of NaSpTx family 1, from the venom of the spider Selenocosmia hainana. Although the amino acid sequence of this family is highly conserved, HNTX-I has shown weak affinity on insect sodium channels and no effect on mammalian voltage-gated sodium channels (VGSCs), unlike the majority of peptide toxins in NaSpTx family 1 [20]. In this study, we used HNTX-I as a framework and engineered analogues of it based on sequence conservation in the family. Ultimately, we engineered a gain-of-function analogue ...

T1 sequence (O60939 30-215): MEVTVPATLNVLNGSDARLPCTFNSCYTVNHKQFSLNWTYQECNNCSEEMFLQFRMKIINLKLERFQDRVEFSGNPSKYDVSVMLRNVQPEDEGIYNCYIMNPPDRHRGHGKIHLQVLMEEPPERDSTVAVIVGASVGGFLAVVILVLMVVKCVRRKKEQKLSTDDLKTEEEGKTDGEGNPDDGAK
T1 sequence (Q07699 19-218, further chain): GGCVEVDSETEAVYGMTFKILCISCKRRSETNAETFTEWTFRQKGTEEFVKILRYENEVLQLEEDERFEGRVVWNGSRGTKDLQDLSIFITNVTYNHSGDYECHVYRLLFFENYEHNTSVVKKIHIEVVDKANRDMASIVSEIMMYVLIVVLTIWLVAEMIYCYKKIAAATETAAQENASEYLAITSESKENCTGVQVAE
T1 sequence (Q15858 other isoform, or with tags, fused parts or gaps): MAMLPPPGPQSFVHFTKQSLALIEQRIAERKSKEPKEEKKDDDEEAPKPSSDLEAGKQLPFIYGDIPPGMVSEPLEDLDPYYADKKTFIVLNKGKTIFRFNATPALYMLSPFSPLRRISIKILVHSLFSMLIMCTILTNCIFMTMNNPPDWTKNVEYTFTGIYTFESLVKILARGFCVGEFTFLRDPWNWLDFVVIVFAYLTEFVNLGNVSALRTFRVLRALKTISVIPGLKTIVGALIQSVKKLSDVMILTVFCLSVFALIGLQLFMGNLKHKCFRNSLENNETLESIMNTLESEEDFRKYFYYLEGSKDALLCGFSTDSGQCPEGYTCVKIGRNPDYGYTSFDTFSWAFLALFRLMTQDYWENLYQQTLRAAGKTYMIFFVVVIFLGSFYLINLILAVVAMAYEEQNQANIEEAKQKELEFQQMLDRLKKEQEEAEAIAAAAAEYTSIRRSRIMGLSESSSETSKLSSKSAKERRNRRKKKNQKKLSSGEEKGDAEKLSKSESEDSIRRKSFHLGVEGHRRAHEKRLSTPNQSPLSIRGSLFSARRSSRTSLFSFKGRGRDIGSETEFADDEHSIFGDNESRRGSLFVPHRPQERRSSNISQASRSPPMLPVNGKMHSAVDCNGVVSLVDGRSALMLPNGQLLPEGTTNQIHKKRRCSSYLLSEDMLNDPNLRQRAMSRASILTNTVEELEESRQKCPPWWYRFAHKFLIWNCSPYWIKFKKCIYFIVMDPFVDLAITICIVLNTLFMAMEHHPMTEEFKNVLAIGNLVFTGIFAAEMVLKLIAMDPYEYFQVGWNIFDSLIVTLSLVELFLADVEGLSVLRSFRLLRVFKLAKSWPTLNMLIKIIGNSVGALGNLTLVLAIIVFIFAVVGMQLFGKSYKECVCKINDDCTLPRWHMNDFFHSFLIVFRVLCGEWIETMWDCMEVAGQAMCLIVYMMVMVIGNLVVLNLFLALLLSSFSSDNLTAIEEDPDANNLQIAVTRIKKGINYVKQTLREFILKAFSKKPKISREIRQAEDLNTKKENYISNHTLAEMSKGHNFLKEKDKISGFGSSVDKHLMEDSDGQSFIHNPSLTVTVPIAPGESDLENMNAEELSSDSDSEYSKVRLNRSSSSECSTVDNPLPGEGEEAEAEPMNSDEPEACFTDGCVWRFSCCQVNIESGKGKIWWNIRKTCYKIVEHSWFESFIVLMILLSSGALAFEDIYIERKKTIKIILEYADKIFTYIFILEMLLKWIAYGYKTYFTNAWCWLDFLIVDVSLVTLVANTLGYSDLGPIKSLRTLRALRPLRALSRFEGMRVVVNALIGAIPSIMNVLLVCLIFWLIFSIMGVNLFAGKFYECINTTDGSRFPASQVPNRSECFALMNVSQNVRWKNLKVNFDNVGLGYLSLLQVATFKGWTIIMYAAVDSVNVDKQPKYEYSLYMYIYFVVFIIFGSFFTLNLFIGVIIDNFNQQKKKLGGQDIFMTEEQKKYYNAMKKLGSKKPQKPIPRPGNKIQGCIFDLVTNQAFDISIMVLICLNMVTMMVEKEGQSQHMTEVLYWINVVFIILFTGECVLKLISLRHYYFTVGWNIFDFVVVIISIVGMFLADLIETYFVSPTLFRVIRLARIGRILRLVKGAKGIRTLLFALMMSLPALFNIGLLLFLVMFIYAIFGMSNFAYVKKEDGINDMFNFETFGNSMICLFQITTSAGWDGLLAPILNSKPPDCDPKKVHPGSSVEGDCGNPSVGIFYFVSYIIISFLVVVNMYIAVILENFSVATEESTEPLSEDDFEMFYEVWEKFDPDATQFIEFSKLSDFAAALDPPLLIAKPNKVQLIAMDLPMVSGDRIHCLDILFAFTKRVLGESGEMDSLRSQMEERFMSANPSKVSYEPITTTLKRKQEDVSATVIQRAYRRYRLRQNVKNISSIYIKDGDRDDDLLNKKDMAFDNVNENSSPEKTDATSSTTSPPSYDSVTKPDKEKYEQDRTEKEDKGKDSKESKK

What is called IC50 is the concentration at which inhibition is half-maximal. Consider `CC(C)C[C@H](NC(=O)[C@H](CC(C)C)NC(=O)[C@@H](NC(=O)[C@H](CCCCN)NC(=O)[C@@H]1CSSC[C@@H]2NC(=O)[C@H](CCC(=O)O)NC(=O)[C@H](CC(N)=O)NC(=O)[C@H](CCCCN)NC(=O)CNC(=O)[C@@H]3CCCN3C(=O)[C@H](C(C)C)NC(=O)[C@@H]3CSSC[C@H](NC(=O)[C@H](C)NC(=O)[C@H](Cc4ccc(O)cc4)NC(=O)CNC(=O)[C@H](CO)NC(=O)[C@H](CSSC[C@H](NC(=O)[C@@H](N)CCC(=O)O)C(=O)N[C@@H](CCCCN)C(=O)NCC(=O)N[C@@H](Cc4ccccc4)C(=O)NCC(=O)N[C@@H](CCCCN)C(=O)N[C@@H](CO)C(=O)N3)NC2=O)C(=O)N[C@@H](CC(N)=O)C(=O)N[C@@H](CO)C(=O)N[C@@H](CCCNC(=N)N)C(=O)N[C@@H](CC(=O)O)C(=O)N[C@@H](CCCCN)C(=O)N[C@@H](Cc2c[nH]c3ccccc23)C(=O)N1)C(C)C)C(=O)O` [Native HNTX-I] (H-ECKGFGKSCVPGKNECCSGYACNSRDKWCKVLL-OH; disulfide 2-17, 9-22, 16-29 (inferred); N-terminus and C-terminus assumed), for which the “Activity on NaV1.7 at a concentration of 10 µM” value at hNaV1.7 is “negligible activity”. The half-inhibitory concentration (IC50) on hNaV1.7 (n ≥ 3) is greater than 10000 nM. Also, the “Effect on mammalian voltage-gated sodium channels (VGSCs)” value in assay [1] is “negligible activity; also recorded: no effect”. For the same compound, in the assay with insect sodium channels, the “Affinity on insect sodium channels” value is “weak affinity”.
For `CC(C)C[C@H](NC(=O)[C@H](CC(C)C)NC(=O)[C@@H](NC(=O)[C@H](CCCCN)NC(=O)[C@@H]1CSSC[C@@H]2NC(=O)[C@H](CCC(=O)O)NC(=O)[C@H](CC(N)=O)NC(=O)[C@H](CCCCN)NC(=O)CNC(=O)[C@@H]3CCCN3C(=O)[C@H](C(C)C)NC(=O)[C@@H]3CSSC[C@H](NC(=O)[C@H](C)NC(=O)[C@H](Cc4ccc(O)cc4)NC(=O)CNC(=O)[C@H](CO)NC(=O)[C@H](CSSC[C@H](NC(=O)CN)C(=O)N[C@@H](CCCCN)C(=O)NCC(=O)N[C@@H](Cc4ccccc4)C(=O)NCC(=O)N[C@@H](CCCCN)C(=O)N[C@@H](CO)C(=O)N3)NC2=O)C(=O)N[C@@H](CC(N)=O)C(=O)N[C@@H](CO)C(=O)N[C@@H](CCCNC(=N)N)C(=O)N[C@@H](CC(=O)O)C(=O)N[C@@H](CCCCN)C(=O)N[C@@H](Cc2c[nH]c3ccccc23)C(=O)N1)C(C)C)C(=O)O` [E1G] (H-GCKGFGKSCVPGKNECCSGYACNSRDKWCKVLL-OH; disulfide 2-17, 9-22, 16-29 (inferred); N-terminus and C-terminus assumed), at hNaV1.7, the “Activity on NaV1.7 at a concentration of 10 µM” value is recorded as “negligible activity”. Moreover, the IC50 at hNaV1.7 (n ≥ 3) was greater than 10000 nM.
Take `CC(C)C[C@H](NC(=O)[C@H](Cc1c[nH]c2ccccc12)NC(=O)[C@@H](NC(=O)[C@H](CCCCN)NC(=O)[C@@H]1CSSC[C@@H]2NC(=O)[C@H](CCC(=O)O)NC(=O)[C@H](CC(N)=O)NC(=O)[C@H](CCCCN)NC(=O)CNC(=O)[C@@H]3CCCN3C(=O)[C@H](C(C)C)NC(=O)[C@@H]3CSSC[C@H](NC(=O)[C@H](C)NC(=O)[C@H](Cc4ccc(O)cc4)NC(=O)CNC(=O)[C@H](CO)NC(=O)[C@H](CSSC[C@H](NC(=O)[C@@H](N)CCC(=O)O)C(=O)N[C@@H](CCCCN)C(=O)NCC(=O)N[C@@H](Cc4ccccc4)C(=O)NCC(=O)N[C@@H](CCCCN)C(=O)N[C@@H](CO)C(=O)N3)NC2=O)C(=O)N[C@@H](CO)C(=O)N[C@@H](CO)C(=O)N[C@@H](CCCNC(=N)N)C(=O)N[C@@H](Cc2c[nH]cn2)C(=O)N[C@@H](CCCCN)C(=O)N[C@@H](Cc2c[nH]c3ccccc23)C(=O)N1)C(C)C)C(=O)O` [N23S–D26H–L32W] (H-ECKGFGKSCVPGKNECCSGYACSSRHKWCKVWL-OH; disulfide 2-17, 9-22, 16-29): the IC50 on hNaV1.7 (n ≥ 3, SEM) came to 71 ± 5 nM.
For `CC(C)C[C@H](NC(=O)[C@H](CC(C)C)NC(=O)[C@@H](NC(=O)[C@H](CCCCN)NC(=O)[C@@H]1CSSC[C@@H]2NC(=O)[C@H](CCC(=O)O)NC(=O)[C@H](CC(N)=O)NC(=O)[C@H](CCCCN)NC(=O)CNC(=O)[C@@H]3CCCN3C(=O)[C@H](C(C)C)NC(=O)[C@@H]3CSSC[C@H](NC(=O)[C@H](C)NC(=O)[C@H](Cc4ccc(O)cc4)NC(=O)CNC(=O)[C@H](CO)NC(=O)[C@H](CSSC[C@H](NC(=O)[C@@H](N)CCC(=O)O)C(=O)N[C@@H](CCCCN)C(=O)NCC(=O)N[C@@H](Cc4ccccc4)C(=O)NCC(=O)N[C@@H](CCCCN)C(=O)N[C@@H](CO)C(=O)N3)NC2=O)C(=O)N[C@@H](CO)C(=O)N[C@@H](CO)C(=O)N[C@@H](CCCNC(=N)N)C(=O)N[C@@H](CC(=O)O)C(=O)N[C@@H](CCCCN)C(=O)N[C@@H](Cc2c[nH]c3ccccc23)C(=O)N1)C(C)C)C(=O)O` [N23S] (H-ECKGFGKSCVPGKNECCSGYACSSRDKWCKVLL-OH; disulfide 2-17, 9-22, 16-29), the IC50 at hNaV1.7 (n ≥ 3, SEM) came to 435 ± 72 nM.
